Data from patent publication US20080200405A1, “Drug Resistance Reversal In Neoplastic Disease” (priority 2007, published 2008).
Read-outs that look alike come from different tables or passages of the source.

Tests used:
TNFα = test: Measurement of LPS Induced-TNFα in THP-1 Cells; type: cell-based, human; conditions: Homo sapiens
Experimental: The lipid peroxidation assay method of Ohkawa, H.; Ohishi, N.; Yaki, K. Anal. Biochem. 1979, 95, 351 was used to evaluate […]. […] […] Cells were collected and spun at 1500 g for 10 minutes. Supernatant was collected and analyzed for TNFα.
Mean Percent Inhibition of TNF-alpha by compounds of the present invention is set forth in Table B. TNF-alpha inhibition data is set forth in Table B-1. OT-551 was used in both native form and in the form of nanoparticles. […] Other nitrogenous heterocyclic species of the invention are expected to show similar improvement in efficacy when disposed in nanoparticulate form.

Lipid peroxidation = Lipid peroxidation inhibition (method of Ohkawa); type: biochemical; conditions: for Lipid Peroxidation Inhibition, % Inhibition: 10 uM
[1] = tested on: bFGF-induced angiogenesis in the CAM model; test: bFGF (FGF2)-stimulated CAM model; type: in vivo, chicken; conditions: bFGF/FGF2 1 ug, 30 ug injected; for inhibition in vivo at 0.03 mg: Gallus gallus, read-out: % Inhibition ± SEM
Experimental: In vivo neovascularization was examined by the method previously described by Auerbach et al. (J. Dev. Biol. 41:391-394 (1974)). Ten-day old chicken embryos were purchased from Spafas, Inc. (Preston, Conn.) and were incubated at 37° C. with 55% relative humidity. In the dark, with the aid of a candling lamp, a small hole was punctured in the shell concealing the air sac with a hypodermic needle. A second hole was punctured in the shell on the broadside of the egg directly over an […] portion of the embryonic membrane, as observed during candling. An artificial air sac was created beneath the second hole by applying gentle vacuum to the first hole using a small rubber squeeze bulb. The vacuum caused the chorioallantoic membrane (CAM) to separate from the shell.
For inducing angiogenesis, sterile filter disks were saturated with bFGF (1 μg/ml) (Life Technologies, Gaithersburg, Md.) or other pro-angiogenesis factors and control disks were saturated with PBS without Calcium and Magnesium. Control disks were saturated with PBS without Calcium and Magnesium.
After 24-48 hr, 10-25 ul of test agent was injected intravenously or added topically into the CAM membrane. Eight-Ten eggs/treatment group were used.
The number of vessel branch points contained in a circular region equal to the area of a filter disk was counted for each section. Percent inhibition data are expressed as the quotient of the experimental value minus the negative control value divided by the difference between the positive control value and the negative control value. One image was counted in each CAM preparation, and findings from eight CAM preparations were analyzed for each treatment condition. In addition, each experiment was performed three times. The resulting angiogenesis index is the mean ±SEM (Standard Error of Measurement) of new branch points in each set of treatment. Statistical analysis of blood vessel branching patterns are performed by 1-way analysis of variance (ANOVA) comparing experimental with corresponding control groups. Statistical significance differences are assessed at P value of <0.05.
The CAM model protocol was modified to include stimulus with bFGF. The effect of injected OT 551 was assayed.
TP-H was applied to the CAM model study to determine its respective anti-angiogenesis effects according to the materials and methods provided in Example 1. Basic Fibroblast Growth Factor (bFGF) was used to induce angiogenesis in the CAM model.
Compounds were introduced via injection to the CAM model study to determine its respective anti-angiogenesis effects according to the materials and methods provided in Example 1. bFGF was used to induce angiogenesis in the CAM model.

[2] = tested on: Doxorubicin resistant SaOS2 cells; test: Cancer cell viability (MTT) in the presence or absence of doxorubicin; type: cell-based, human; conditions: compound 50 ug/mL, 3 days
[3] = tested on: Human whole blood clot formation
Experimental: TEG: Human whole blood (±drugs) was added to the cylindrical cuvette (“cup”). […] The cup oscillates 4°45′ ( 1/12 radian) in either direction every 4.5 seconds, with a 1-second mid-cycle stationary period, resulting in a frequency of 0.1 Hz and a maximal shear rate of 0.1 per second. The pin was suspended by a torsion wire that acts as a torque transducer. […] The torque experienced by the pin (relative to the oscillation of the cup) was plotted as a function of time (Forsythe, S. A. M. S. K. M. S. (2000): “Comparative In Vitro Efficacy of Different Platelet Glycoprotein IIb/IIIa Antagonists on Platelet-Mediated Clot Strength Induced by Tissue Factor With Use of Thromboelastography.” Arteriosclerosis, Thrombosis, and Vascular Biology 20: 1162).
(Data represent mean ±SD, n=6 (blood form normal healthy volunteers), *P<0.01 as compared to control)

[4] = THP-1, compound 10 uM, 5 ng/mL LPS, read-out: Mean Percent Inhibition of TNF-alpha using 5 ng/mL LPS
[5] = TEG, human whole blood, Bevacizumab 1 ng/cup, Comp. 4 0 uM, *P<0.01 vs control

Molecule | inhibition at 10 µM (TNFα; [4]) [%] | IC50 (TNFα; THP-1, read-out: TNFalpha IC50) [µM] | Lipid Peroxidation Inhibition, % Inhibition (Lipid peroxidation) [%] | inhibition in vivo at 0.03 mg [1] [%] | Branch pts ± SEM [1] | Mean OD (×10^−3), MTT viability ([2]; Dox. 10^−6 M (+)) | Mean OD (×10^−3), MTT viability ([2]; absence of Dox. (−)) | % Lipid Peroxidation inhibition (at 1 uM) (Lipid peroxidation) [%] | melting point | inhibition at 10 µM (TNFα; THP-1, read-out: Mean Percent Inhibition of TNF-alpha using 5 ng/mL LPS) [%] | IC50 (TNFα; THP-1, read-out: TNFalpha IC50 (uM)) [µM] | MA in comparison to native blood [3] | initiation of clot formation in comparison to native blood [3] | Clot Strength - MA [3, 5] | Time to Clot Initiation R [3, 5]
CC1(C)CC(O)C(C)(C)N1O (centres unmarked) [Compound 7, 2,2,5,5-Tetramethyl-pyrrolidine-1,3-diol] | 69 ± 2 | 44.9 | 82.9 | 124 ± 8.4 | 40.8 ± 9.7 | 241.25 ×10^−3 | 540.25 ×10^−3 |  |  |  |  |  |  |  | 
CC1(C)CC(OCc2ccccc2)CC(C)(C)N1O.Cl [Compound 43, 4-Benzyloxy-1-hydroxy-2,2,6,6-tetramethylpiperidine hydrochloride] |  | ≥ 100 |  |  |  | 324.67 ×10^−3 | 1159.00 ×10^−3 | 88.5 | 181.5 °C (dec.) |  |  |  |  |  | 
CC1(C)CC(=O)CC(C)(C)N1O [Compound 5, 1-Hydroxy-2,2,6,6-tetramethyl-piperidin-4-one] |  |  | 86.3 | 26.5 ± 7.9 | 86.1 ± 9.8 | 245.50 ×10^−3 | 556.50 ×10^−3 | 71.0 |  | 66 ± 7 | 22.2 |  |  |  | 
CC1(C)CC(NS(C)(=O)=O)CC(C)(C)N1O [Compound 10, 1-hydroxy-4-methanesulfonamido-2,2,6,6-tetramethylpiperidine] |  | ≥ 100 | 85.8 | 78.2 ± 9.9 | 60.4 ± 5.0 | 250.00 ×10^−3 | 456.00 ×10^−3 |  |  |  |  |  |  |  | 
CC1C(O)C(C)C(C)(C)N(O)C1(C)C.Cl (centres unmarked) [Compound 6, 2,2,3,5,6,6-Hexamethyl-piperidine-1,4-diol hydrogen chloride salt] | 54 ± 6 | 29.4 | 89.0 | 40.4 ± 9.3 | 78.6 ± 7.3 | 185.25 ×10^−3 | 367.00 ×10^−3 | 70.5 | 191.5 °C (dec.) |  |  |  |  |  | 
CC1(C)CC(O)(c2ccccc2)CC(C)(C)N1O.Cl [Compound 42, 1,4-Dihydroxy-4-phenyl-2,2,6,6-tetramethylpiperidine hydrochloride] |  | 1 |  |  |  | 311.00 ×10^−3 | 1068.67 ×10^−3 | 83.8 | 201.7 °C (dec.) |  |  |  |  |  | 
CC(=O)NC1CC(C)(C)N(O)C(C)(C)C1.Cl [Compound 2, 1-hydroxy-4-acetamido-2,2,6,6-tetramethylpiperidine] | 64 ± 5 | 17 | 81.0 | 76.4 ± 9.9 | 84.7 ± 11.1 | 249.25 ×10^−3 | 496.33 ×10^−3 |  | 180.5 °C (dec.) |  |  |  |  |  | 
COC1CC(C)(C)N(O)C(C)(C)C1.Cl [Compound 1, 1-hydroxy-4-methoxy-2,2,6,6-tetramethylpiperidine hydrogen chloride] | 50 ± 9 | 16.8 | 90.8 | 89.9 ± 18 | 74 ± 8.6 | 246.50 ×10^−3 | 524.75 ×10^−3 | 74.1 |  |  |  |  |  |  | 
Cc1cc(O)c(O)cc1C(=O)NC1CC(C)(C)N(O)C(C)(C)C1.Cl [Compound 27, 4,5-dihydroxy-2-methyl-N-(1-hydroxy-2,2,6,6-tetramethylpiperidin-4-yl)benzamide hydrogen chloride] |  | ≥ 100 |  |  |  | 403.75 ×10^−3 | 1038.33 ×10^−3 | 53.4 |  |  |  |  |  |  | 
CC1(C)C=CCC(C)(C)N1O.Cl [Compound 35, 1-hydroxy-1,2,3,6-tetrahydro-2,2,6,6-tetramethylpyridine hydrogen chloride] |  | 3.8 |  |  |  | 352.75 ×10^−3 | 1128.00 ×10^−3 | 64.4 |  |  |  |  |  |  | 
CC1(C)CC(N2CCOCC2)CC(C)(C)N1O.Cl [Compound 3, 4-(2,2,6,6-tetramethylpiperidin-1-hydroxy-4-yl)morpholine hydrogen chloride] | 60 ± 2 | 11.6 | 77.8 | 54.7 ± 7.9 | 95.1 ± 5.6 | 289.50 ×10^−3 | 640.25 ×10^−3 |  |  |  |  |  |  |  | 
CC1(C)CC(NC(=O)N2CCOCC2)CC(C)(C)N1O.Cl [Compound 11, N-(2,2,6,6-tetramethylpiperidin-1-hydroxyl-4-yl)morpholine-4-carboxamide hydrogen chloride] | 24 ± 5 | 20.7 | 82.7 | 71 ± 8.8 | 64.0 ± 5.1 | 267.25 ×10^−3 | 470.25 ×10^−3 |  | 158.1 °C (dec.) |  |  |  |  |  | 
Bevacizumab: a monoclonal antibody against vascular endothelial growth factor used to treat cancer by inhibiting angiogenesis [reference compound] |  |  |  |  |  |  |  |  |  |  |  | approximately six times larger MA | approximately two to three fold faster | 33.8 ± 5.6* mm | 7.8 ± 1.1* min
